In patent US9242984B2, “Pyrazolyl derivatives as Syk inhibitors” (Merck Sharp & Dohme Corp., priority 2012, dated 2016) one finds IC50 data, which are given here for 26 compounds.

A value given as a limit tells only on which side of the number the result lay.

One test concerns the target T1, recombinant human Syk (GST-hSyk fusion protein) (Homo sapiens, UniProt P43405).
T1 construct: purchased Carna Biosciences 08-176
Put plainly: Homogeneous Time-Resolved Fluorescence (HTRF) assay for the recombinant human Syk enzyme. The class given is biochemical. The following applies: 10-dose titration, 25 μM ATP; read-out: rhSYK IC50. The method in brief:
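GST-hSyk (5 pM) preincubated 10 min with compound (0.1% DMSO) in 15 mM Tris-HCl pH 7.5, 2 mM DTT; reaction started with 250 nM biotinylated peptide, 5 mM Mg, 25 μM ATP, 45 min, room temperature. EDTA quench, Eu-anti-phosphotyrosine/SA-APC HTRF read after 30 min; IC50 from 10-dose titration (10 μM–0.508 nM), four-parameter fit.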
Background: TR-FRET usually uses a lanthanide donor and a delayed reading to cut background.
Take `COc1ccnc(Nc2cc(C)cc(-c3cnn(CCC(=O)O)c3)c2)n1` [Example 2.1, 3-(4-(3-((4-methoxypyrimidin-2-yl)amino)-5-methylphenyl)-1H-pyrazol-1-yl)propanoic acid]: the IC50 turned out to be 22.1 nM.

The test is the same for the next values; noted with them: IC50 class; 10-dose titration, 25 μM ATP; read-out: rhSYK Activity.
`COc1ccnc(Nc2cc(C)cc(-c3cnn(CCC(=O)O)c3)c2)n1` [Example 2.1, 3-(4-(3-((4-methoxypyrimidin-2-yl)amino)-5-methylphenyl)-1H-pyrazol-1-yl)propanoic acid]: the IC50 was no more than 100 nM.

Regarding `CCOC(=O)CCn1cc(-c2cccc(Nc3nccc(C(F)(F)F)n3)c2)cn1` [Example 2.2, ethyl 3-[4-(3-{[4-(trifluoromethyl)-pyrimidin-2-yl]-amino}phenyl)-1H-pyrazol-1-yl]-propanoate], the IC50 fell in the range of 100 to 1000 nM.

With `CCOC(=O)CCn1cc(-c2cc(C)cc(Nc3nccc(OC)n3)c2)cn1` [Example 2.3, ethyl 3-(4-{3-[(4-methoxypyrimidin-2-yl)amino]-5-methylphenyl}-1H-pyrazol-1-yl)-propanoate], the IC50 is no more than 100 nM.

For `O=C(O)CCn1cc(-c2cccc(Nc3nccc(C(F)(F)F)n3)c2)cn1` [Example 2.5, 3-[4-(3-{[4-(trifluoro-methyl)pyrimidin-2-yl]amino}phenyl)-1H-pyrazol-1-yl]-propanoic acid], the IC50 was no more than 100 nM.

As for `Cc1cc(Nc2ncc(F)c(C)n2)cc(-c2cnn(CCC(N)=O)c2)c1` [Example 2.6, 3-(4-{3-[(5-fluoro-4-methylpyrimidin-2-yl)amino]-5-methylphenyl}-1H-pyrazol-1-yl)propanamide], the IC50 was no more than 100 nM.

On to `COc1nc(Nc2cc(C)cc(-c3cnn(CCC(N)=O)c3)c2)ncc1Cl` [Example 2.7, 3-(4-{3-[(5-chloro-4-methoxypyrimidin-2-yl)amino]-5-methylphenyl}-1H-pyrazol-1-yl)propanamide], for which the IC50 was no more than 100 nM.

Consider `Cc1cc(Nc2nccc(C(C)C)n2)cc(-c2cnn(CCC(N)=O)c2)c1` [Example 2.8, 3-[4-(3-methyl-5-{[4-(1-methylethyl)-pyrimidin-2-yl]-amino}phenyl)-1H-pyrazol-1-yl]propanamide], for which the IC50 is no more than 100 nM.

As for `Cc1cc(Nc2nccc(C(F)F)n2)cc(-c2cnn(CCC(N)=O)c2)c1` [Example 2.9, 3-[4-(3-{[4-(difluoromethyl)pyrimidin-2-yl]amino}-5-methylphenyl)-1H-pyrazol-1-yl]propanamide], the IC50 is no more than 100 nM.

As for `Cc1ccnc(Nc2cccc(-c3cnn(CCC(N)=O)c3)c2)n1` [Example 2.10, 3-(4-{3-[(4-methylpyrimidin-2-yl)amino]phenyl}-1H-pyrazol-1-yl)propanamide], the IC50 lay within 100 to 1000 nM.

As for `COc1nc(Nc2cc(C)cc(-c3cnn(CCC(N)=O)c3)c2)ncc1F` [Example 2.11, 3-(4-{3-[(5-fluoro-4-methoxypyrimidin-2-yl)amino]-5-methylphenyl}-1H-pyrazol-1-yl)propanamide], the IC50 is no more than 100 nM.

Regarding `Cc1cc(Nc2nccc(C)n2)cc(-c2cnn(CCC(N)=O)c2)c1` [Example 2.12, 3-(4-{3-methyl-5-[(4-methylpyrimidin-2-yl)amino]phenyl}-1H-pyrazol-1-yl)propanamide], the IC50 was no more than 100 nM.

As for `Cc1cc(Nc2ncc(Cl)c(C)n2)cc(-c2cnn(CCC(N)=O)c2)c1` [Example 2.13, 3-(4-{3-[(5-chloro-4-methylpyrimidin-2-yl)amino]-5-methylphenyl}-1H-pyrazol-1-yl)propanamide], the IC50 is no more than 100 nM.

In the case of `Cc1cc(Nc2nccc(C3CC3)n2)cc(-c2cnn(CCC(N)=O)c2)c1` [Example 2.14, 3-(4-{3-[(4-cyclopropylpyrimidin-2-yl)amino]-5-methylphenyl}-1H-pyrazol-1-yl)propanamide], the IC50 is no more than 100 nM.

As for `NC(=O)CCn1cc(-c2cccc(Nc3nccc(C(F)(F)F)n3)c2)cn1` [Example 2.15, 3-[4-(3-{[4-(trifluoromethyl)pyrimidin-2-yl]amino}phenyl)-1H-pyrazol-1-yl]propanamide], the IC50 was no more than 100 nM.

`Cc1ccnc(Nc2cccc(-c3cnn(CC4CNC(=O)O4)c3)c2)n1` (stereo not drawn) [Example 2.16, 5-[(4-{3-[(4-methylpyrimidin-2-yl)amino]phenyl}-1H-pyrazol-1-yl)methyl]-1,3-oxazolidin-2-one]: the IC50 is 100 to 1000 nM.

Turning to `COc1ccnc(Nc2cc(C)cc(-c3cnn(CC4CNC(=O)O4)c3)c2)n1` (stereo not drawn) [Example 2.17, 5-[(4-{3-[(4-methoxypyrimidin-2-yl)amino]-5-methylphenyl}-1H-pyrazol-1-yl)methyl]-1,3-oxazolidin-2-one], the IC50 was no more than 100 nM.

Take `Cc1cc(Nc2nccc(C)n2)cc(-c2cnn(CC3CNC(=O)O3)c2)c1` (stereo not drawn) [Example 2.18, 5-[(4-{3-methyl-5-[(4-methylpyrimidin-2-yl)amino]phenyl}-1H-pyrazol-1-yl)methyl]-1,3-oxazolidin-2-one]: the IC50 was no more than 100 nM.

In the case of `Cc1cc(Nc2nccc(C3CC3)n2)cc(-c2cnn(CC3CNC(=O)O3)c2)c1` (stereo not drawn) [Example 2.19, 5-[(4-{3-[(4-cyclopropylpyrimidin-2-yl)amino]-5-methylphenyl}-1H-pyrazol-1-yl)methyl]-1,3-oxazolidin-2-one], the IC50 is no more than 100 nM.

As for `Cc1ccnc(Nc2cccc(-c3cnn(CC4CNC(=O)O4)c3)c2)n1` (stereo not drawn) [Example 2.20, 5-[(4-{3-[(4-methylpyrimidin-2-yl)amino]phenyl}-1H-pyrazol-1-yl)methyl]-1,3-oxazolidin-2-one], the IC50 is no more than 100 nM.

As for `COc1ccnc(Nc2cc(C)cc(-c3cnn(CC4CNC(=O)O4)c3)c2)n1` (stereo not drawn) [Example 2.21, 5-[(4-{3-[(4-methoxypyrimidin-2-yl)amino]-5-methylphenyl}-1H-pyrazol-1-yl)methyl]-1,3-oxazolidin-2-one], the IC50 was no more than 100 nM.

`Cc1cc(Nc2ncc(F)c(C)n2)cc(-c2cnn(CC3CNC(=O)O3)c2)c1` (stereo not drawn) [Example 2.22, 5-[(4-{3-[(5-fluoro-4-methylpyrimidin-2-yl)amino]-5-methylphenyl}-1H-pyrazol-1-yl)methyl]-1,3-oxazolidin-2-one]: the IC50 is no more than 100 nM.

With `COc1nc(Nc2cc(C)cc(-c3cnn(CC4CNC(=O)O4)c3)c2)ncc1Cl` (stereo not drawn) [Example 2.23, 5-[(4-{3-[(5-chloro-4-methoxypyrimidin-2-yl)amino]-5-methylphenyl}-1H-pyrazol-1-yl)methyl]-1,3-oxazolidin-2-one], the IC50 was no more than 100 nM.

On to `Cc1cc(Nc2nccc(C(C)C)n2)cc(-c2cnn(CC3CNC(=O)O3)c2)c1` (stereo not drawn) [Example 2.24, 5-{[4-(3-methyl-5-{[4-(1-methylethyl)pyrimidin-2-yl]amino}phenyl)-1H-pyrazol-1-yl]methyl}-1,3-oxazolidin-2-one], for which the IC50 was no more than 100 nM.

Regarding `COc1nc(Nc2cc(C)cc(-c3cnn(CC4CNC(=O)O4)c3)c2)ncc1F` (stereo not drawn) [Example 2.25, 5-[(4-{3-[(5-fluoro-4-methoxypyrimidin-2-yl)amino]-5-methylphenyl}-1H-pyrazol-1-yl)methyl]-1,3-oxazolidin-2-one], the IC50 was no more than 100 nM.

`Cc1cc(Nc2ncc(Cl)c(C)n2)cc(-c2cnn(CC3CNC(=O)O3)c2)c1` (stereo not drawn) [Example 2.26, 5-[(4-{3-[(5-chloro-4-methylpyrimidin-2-yl)amino]-5-methylphenyl}-1H-pyrazol-1-yl)methyl]-1,3-oxazolidin-2-one]: the IC50 was no more than 100 nM.

Consider `O=C1NCC(Cn2cc(-c3cccc(Nc4nccc(C(F)(F)F)n4)c3)cn2)O1` (stereo not drawn) [Example 2.27, 5-{[4-(3-{[4-(trifluoromethyl)pyrimidin-2-yl]amino}phenyl)-1H-pyrazol-1-yl]methyl}-1,3-oxazolidin-2-one], for which the IC50 was no more than 100 nM.
